The values that follow come from patent EP0102195A2, “Substituted aza bicycloalkyl derivatives with dopamine antagonist activity” (BEECHAM GROUP PLC, priority 1982, dated 1984).

One experiment concerns dog. Briefly: Anti-emetic activity in the dog (apomorphine-induced vomiting). The note with it: for ED50: Canis lupus familiaris, sc, 30 minutes prior to apomorphine HCl 0.1 mg/kg subcutaneously, vomiting response. Format: in vivo. On the procedure: Compounds were administered subcutaneously 30 minutes prior to administration of a standard dose of apomorphine HCl (0.1 mg/kg subcutaneously) and the vomiting response compared to that obtained when the same animals were dosed with apomorphine HC1 and vehicle only.

The test system of a further experiment is Dopamine receptor. Briefly: Inhibition of apomorphine induced climbing in the mouse (central dopamine receptor blocking activity). Format: in vivo. The settings on record: apomorphine 1 mg/kg s.c.
A further experiment deals with rats. Briefly: Increase in intragastric pressure (gastric motility enhancing activity). Format: in vivo. The note with it: 0.5 mg/kg s.c.; conscious restrained rats; average height of pressure waves, 40 minutes post dose vs pre-dose, Student's t test. The procedure:
Intragastric pressure changes were recorded from previously starved conscious but restrained rats using a saline filled catheter inserted into the lumen of the stomach via a permanent gastric fistula. The catheter was connected to a physiological pressure transducer and pressure changes recorded on a hot wire pen recorder. In each animal a pre-dose period of 40 minutes was allowed to obtain a measure of spontaneous activity. An index of activity was obtained by measuring the average height of pressure waves during 10 minute periods. Values for 4 such periods were obtained during assessment of spontaneous activity and for 40 minute period after administration of compound. Student's "t" test was applied to the difference in average values obtained for spontaneous and post compound activity.

For another experiment, the system named is Heidenhain pouch. Briefly: Heidenhain pouch test (gastric motility enhancing activity). The experiment is classed as in vivo, Male Beagle dogs. The note with it: Beagle dogs; for period of activity: Heidenhain pouch.

For `CNc1cccc(OC)c1C(=O)N[C@@H]1C[C@H]2CC[C@@H](C1)N2Cc1ccccc1` [Example 12, 2-Methylamino-6-methoxy-N-[3β-(8-benzyl-8-azabicyclo (3,2,1)octyl)]benzamide], in the experiment with dog (dose of 0.01 mg/kg s.c., apomorphine HCl 0.1 mg/kg subcutaneously), the anti-emetic activity entry was “active”.

On to `CCNc1ccc(S(=O)(=O)N(C)C)cc1C(=O)N[C@@H]1C[C@H]2CC[C@@H](C1)N2Cc1ccccc1` [Example 5, 5-Dimethylaminosulphonyl-2-ethylamino-N[3 ε'-(8' -benzyl-8' -azabicyclo'{3.2.1)octyl)]-benzamide], for which the “inhibition of apomorphine induced climbing” value (from here on “inhibition”) in the experiment with Dopamine receptor (dose of 10 mg/kg s.c.) is “inactive”. The “index of activity post administration” value in the experiment on rats is “significantly increased”.

For `CN(C)S(=O)(=O)c1ccc(NC2CC2)c(C(=O)N[C@@H]2C[C@H]3CC[C@@H](C2)N3Cc2ccccc2)c1` [Example 6], in the experiment with dog, it took a dose of 0.5 mg/kg to reach the 50% effect level (ED50). In addition, the “inhibition” value in the experiment with Dopamine receptor (dose of 10 mg/kg s.c.) is “inactive”. The period of activity entry with Heidenhain pouch was “greater than 1 hour”. Also, the “motility of the pouch (activity)” value with Heidenhain pouch (dose of 0.5 mg/kg s.c.) is recorded as “active”. Besides, the “index of activity post administration” value with rats is listed as “significantly increased”.

For `CCOC(=O)N(C)c1ccc(S(=O)(=O)N(C)C)cc1C(=O)N[C@@H]1C[C@H]2CC[C@@H](C1)N2Cc1ccccc1` [Example 4, 5-Dimethylaminosulphonyl-2-(N-methyl-N-ethoxycarbonyl)amino-N [3'8-(8'-benzyl-8'-azabicyclo{3.2.1]octyl)] benzamide], the “inhibition” value in the experiment with Dopamine receptor (dose of 10 mg/kg s.c.) was “inactive”.

With `CNc1ccc(S(=O)(=O)N(C)C)cc1C(=O)N[C@@H]1C[C@H]2CC[C@@H](C1)N2Cc1ccccc1` [Example 3, 5-Dimethylaminosulphonyl-2-methylamino-N(3'β(8'-benzyl-8'-azabicyclo{3.2.1}octyl)]benzamide], the “inhibition” value with Dopamine receptor (dose of 25 mg/kg s.c.) is “inactive”. In the experiment with Heidenhain pouch, the period of activity result was “greater than 1 hour”. The “motility of the pouch (activity)” value in the experiment on Heidenhain pouch (dose of 0.1 mg/kg s.c.) is reported as “active”. Further, in the experiment on rats, the “index of activity post administration” value was “significantly increased”.

`CN(C)c1ccc(S(=O)(=O)N(C)C)cc1C(=O)N[C@@H]1C[C@H]2CC[C@@H](C1)N2Cc1ccccc1` [Example 2, 2-Dimethylamino-5-dimethylaminosulphonyl-ls(3'6-(8'-benzyl-8'-azabicyclo{3.2.1]octyl)]-benzamide] came in with an ED50 in the experiment with dog of 0.1 mg/kg. Further, the “inhibition” value in the experiment with Dopamine receptor (dose of 10 mg/kg s.c.) was “inactive”. In addition, in the experiment with Heidenhain pouch (dose of 0.5 mg/kg s.c.), the “motility of the pouch (activity)” value is given as “active”.
